According to article PMC10974743, “Design, Synthesis, and Biological Evaluation of Novel Phenoxy Acetic Acid Derivatives as Selective COX-2 Inhibitors Coupled with Comprehensive Bio-Pharmacological Inquiry, Histopathological Profiling, and Toxicological Scrutiny” (Molecules, 2024):
“Also recorded” adds a separate entry of the source. Marks after values point to notes of the source that are not given here.

Experiments:
PGE2 = PGE2 content of paw exudate by ELISA, carrageenan paw edema model; assay type: in vivo, Sprague Dawley rats; details: vs carrageenan group
Description: (§1) ELISA assessment assays were conducted as cited (Supplementary Materials, page 53).
(§2) In-vivo anti-inflammatory activity […]
(§3) cervical dislocation. […] The percentage
(§4) Weight of the left paw] ×100.
(§5) Assessment of inflammatory biomarkers using ELISA […]
(§6) content, using enzyme -linked immunosorbent assay (ELISA). The ELISA kits were purchased from CLOUD -CLONE CORP (CCC, USA) (Cat# SEA133Ra) and MyBioSource company (British Columbia, Canada) (Cat# MBS730592) respectively, and the assays were performed following the manufacturer' s instructions. Additionally, the protein content of the exudates was determined using the Bradford method.

[1] = Assessment of liver and kidney function (serum ALT, AST, creatinine, urea); assay type: in vivo, rats; parameters: Urea: unit not given here; details: mean ± SD
Description: These assessments were conducted following the manufacturer’s instructions (Supplementary Materials, page 55).
In-vivo anti-inflammatory activity
as §3, §4
Assessment of inflammatory biomarkers using ELISA

COX-2 = details: cited from earlier work
[2] = system: paw tissue, carrageenan paw edema model; assay: Histopathological examination of paws, inflammatory cell infiltration score; assay type: in vivo, rats
Description: The histopathological assessments were performed according to the following procedures (Supplementary Materials, page 54). […]
Histopathological examination
Thirty-six rats were separated into six groups of six rats each for histological assessment […]
groupings consisted of a control group, a carrageenan group, two groups for the reference drugs […]
protocols that were utilized in the in-vivo anti-inflammatory activity test were used. After a duration of 5 hours, the animals were euthanized, and their left paws were amputated. The paws were preserved in 10% neutral buffered formalin, trimmed, washed, dehydrated in increasing concentrations of ethyl alcohol, clarified in xylene, and ultimately embedded in paraffin. They were then sliced into 4-6µ thick slices, stained with Hematoxylin and Eosin, and examined under a light microscope. A scoring system was used to evaluate the degree of inflammation, dividing it into six categories ranging from 0 indicating no inflammation to 5 indicating severe inflammation.
Each score corresponded to a certain level of inflammation: 0 for no inflammation, 1 for mild inflammation, 2 for mild to moderate inflammation, 3 for moderate inflammation, 4 for moderate to severe inflammation, and 5 for severe inflammation.

human COX-2 = target: T1, human COX-2 (Homo sapiens, UniProt P35354); assay: In vitro COX-2 inhibition assay (Cayman colorimetric COX inhibitor screening kit)
T1 sequence (P35354 18-604): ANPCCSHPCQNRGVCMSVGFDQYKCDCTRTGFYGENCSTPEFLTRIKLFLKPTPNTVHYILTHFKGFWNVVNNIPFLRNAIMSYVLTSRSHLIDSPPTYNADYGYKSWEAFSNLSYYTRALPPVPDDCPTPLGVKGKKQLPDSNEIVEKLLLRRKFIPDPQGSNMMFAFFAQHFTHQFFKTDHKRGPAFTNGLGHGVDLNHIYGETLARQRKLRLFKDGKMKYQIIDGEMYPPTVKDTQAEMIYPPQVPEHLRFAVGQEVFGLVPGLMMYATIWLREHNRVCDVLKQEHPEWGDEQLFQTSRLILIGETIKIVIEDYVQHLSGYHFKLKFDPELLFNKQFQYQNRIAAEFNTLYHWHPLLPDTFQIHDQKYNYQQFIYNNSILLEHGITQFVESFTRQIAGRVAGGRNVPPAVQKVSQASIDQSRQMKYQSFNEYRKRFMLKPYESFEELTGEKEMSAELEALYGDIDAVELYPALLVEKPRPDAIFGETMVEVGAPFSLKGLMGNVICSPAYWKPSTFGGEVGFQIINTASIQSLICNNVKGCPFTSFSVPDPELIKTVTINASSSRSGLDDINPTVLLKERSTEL
Description: (§7) The in vitro enzyme assays were performed at the Biochemistry Department, Cairo
(§8) General Hospital, Egypt. Cayman® colorimetric COX (ovine) inhibitor screening assay kit (Item
(§9) enzymes in presence of all newly compounds. Generally, this kit is dependent on the reductive
(§10) reaction of COX. A specific antibody binds to PGH2 produced by COX and is further quantified
(§11) by the ELISA technique as previously reported. After that, the selectivity index (SI) was calculated
as the following equation:
𝐒𝐞𝐥𝐞𝐜𝐭𝐢𝐯𝐢𝐭𝐲 𝐢𝐧𝐝𝐞𝐱 (𝐒𝐈) = 𝐈𝐂₅₀𝐨𝐟 𝐂𝐎𝐗 − 𝟏

ovine COX-1 = target: T2, ovine COX-1 (Ovis aries, UniProt P05979); assay: In vitro COX-1 inhibition assay (Cayman colorimetric COX inhibitor screening kit)
T2 sequence (P05979 25-600): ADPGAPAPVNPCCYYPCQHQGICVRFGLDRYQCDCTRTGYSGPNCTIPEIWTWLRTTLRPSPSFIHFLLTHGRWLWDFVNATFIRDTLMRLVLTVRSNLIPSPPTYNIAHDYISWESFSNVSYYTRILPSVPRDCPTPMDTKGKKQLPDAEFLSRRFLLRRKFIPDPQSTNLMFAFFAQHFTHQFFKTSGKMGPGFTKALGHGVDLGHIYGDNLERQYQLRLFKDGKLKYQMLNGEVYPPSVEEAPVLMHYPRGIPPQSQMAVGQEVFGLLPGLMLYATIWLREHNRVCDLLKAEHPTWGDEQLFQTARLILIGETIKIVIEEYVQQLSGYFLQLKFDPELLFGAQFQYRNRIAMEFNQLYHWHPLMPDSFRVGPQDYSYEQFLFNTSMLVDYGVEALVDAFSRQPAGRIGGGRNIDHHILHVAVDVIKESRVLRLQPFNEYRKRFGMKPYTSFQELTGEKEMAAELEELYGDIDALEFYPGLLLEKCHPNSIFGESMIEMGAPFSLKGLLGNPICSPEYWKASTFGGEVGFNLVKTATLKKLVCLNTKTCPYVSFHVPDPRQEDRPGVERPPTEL
Description: as §7, §8, §9, §10, §11
as the following equation:
𝐒𝐞𝐥𝐞𝐜𝐭𝐢𝐯𝐢𝐭𝐲 𝐢𝐧𝐝𝐞𝐱 (𝐒𝐈) = 𝐈𝐂₅₀𝐨𝐟 𝐂𝐎𝐗 − 𝟏

[3] = system: carrageenan-induced paw edema; assay: Carrageenan paw edema test (paw thickness, paw weight); details: for Paw thickness difference: oral; for Percentage of inhibition of paw thickness: vs carrageenan group
Description: The carrageenan paw edema test was conducted following established procedures as detailed (Supplementary Materials, page 53).
The carrageenan paw edema test was conducted following established procedures. In summary, seventy-two rats were randomly assigned to twelve groups, each comprising six rats.
These groups included normal controls, carrageenan controls (both receiving the vehicle; 1%
Acute inflammation was induced in the right hind paws of all rats one hour after oral administration of the respective compounds or vehicle. This was achieved by injecting a freshly prepared 0.1 mL carrageenan suspension (1% in normal saline) subplantarly into the right hind paw, except for the normal control group, which received a saline injection. Paw thickness was measured hourly (Ct) until the fifth hour (C5) post-carrageenan injection (C0). The hourly increase in paw thickness (paw thickness difference) was calculated by subtracting the initial measurement (C0) from the thickness at each hour (Ct), and the results were presented as the mean increase in paw thickness (mm). To evaluate anti-inflammatory effects, the percentage of inhibition for each standard and test compound was determined using the formula: percentage of inhibition (%) = [(Paw thickness difference of carrageenan group - Paw thickness difference of treated)/ Paw thickness difference of carrageenan group] × 100. […] The paws were then excised and weighed (both left and right). The percentage of weight increase between the left and right paws of each animal was calculated using the equation: Percentage of weight increase = [(Weight of the right paw - Weight of the left paw) / Weight of the left paw] ×100.

gastric mucosa = assay: Evaluation of ulcerogenic effects (macroscopic scores and gastric histopathology)
Description: The assessment of ulcerogenic effects was conducted following established procedures [42, 57]
Following the experimental period, the animals were euthanized using pentobarbital sodium (100 mg/kg), and blood was collected via jugular vein exsanguination for later evaluation of liver and kidney function, and subsequently sacrificed by cervical dislocation. […] Following this, the animals' stomachs were removed, inflated, and opened along the greater curvature to evaluate ulcerogenic effects.
B: Ulcer lesion severity scoring system
2.5 More than 10 small ulcers
3 1 marked ulcer plus 0 to 4 small ulcers
3.5 1 marked ulcer plus 5 or more small ulcers
4 2 marked ulcers plus 0 to 4 small ulcers
4.5 2 marked ulcers plus 5 or more small ulcers
5 3 or more marked ulcers
The statistical analysis of the data was conducted using GraphPad Prism 9.5.1 Demo
(GraphPad Software, San Diego, CA). One -way analysis of variance (ANOVA) was utilized to
evaluate differences among the various groups, except for paw edema volume, which un derwent
analysis using two -way ANOVA. Post -hoc analysis was performed using Tukey's multiple
significance set at P < 0.05

TNF-α = TNF-α content of paw exudate by ELISA, carrageenan paw edema model; assay type: in vivo, Sprague Dawley rats; details: vs carrageenan group
Description: as §1, §2, §3, §4, §5, §6

[4] = system: nociceptive responses on hot plate; assay: Hot plate latency test (analgesic activity); assay type: in vivo, rats; details: for Hot plate latency period: plate 50 °C, mean ± SD, n = 6
Description: The hot plate latency test was performed according to the following procedures (Supplementary Materials, page 54). […]
In summary, thirty rats
The normal control group received 1% CMC, while the remaining groups were administered their respective reference or test compounds. Each rat was gently positioned on a heated plate set at 50 ◦C. The latency period for nociceptive responses, such as paw licking or jumping off the hot plate, was recorded at 30-, 60-, 90-, and 120 minutes post-administration of the reference drugs, test […]

[5] = compared to the normal control group

SMILES: Cc1cccc(Nc2ccccc2C(=O)O)c1C [Mefenamic acid, mefenamic acid, reference compound]
- Reduction of PGE2 exudate content (PGE2): 59.37%
- ALT ([1]; n = 6): 88.84 ± 6.09 IU/L
- AST ([1]; n = 6): 97.51 ± 8.08 IU/L
- AST/ALT ([1]; n = 6): 1.10 ± 0.15
- Urea ([1]; n = 6): 27.58 ± 2.08
- Creatinine ([1]; n = 6, in mg/dL (unit assumed)): 0.72 ± 0.05
- IC50 (COX-2): 5.3 µM
- Paw histopathological finding ([2]; H&E staining, carrageenan paw edema): infiltration of dermis by high number of inflammatory cells mainly lymphocytes and eosinophils; also recorded: significant cutaneous infiltration by inflammatory cells
- Reduction in inflammatory cell infiltration score ([2]; vs carrageenan group, paw, 5 hours): 37.04%
- SI (COX-2 selectivity index) (human COX-2; COX-1 (IC50)/COX-2 (IC50)): 15.10
- IC50 (human COX-2; COX-2 IC50, mean ± SEM, n = 3): 1.98 ± 0.02 µM
- IC50 (ovine COX-1): 29.9 ± 0.09 µM
- Paw thickness difference ([3]; 1st h after carrageenan, mean ± SD, n = 6): 1.22 ± 0.19 mm
- Percentage of inhibition of paw thickness ([3]; 1st h): 38.43%
- Paw thickness difference ([3]; 2nd h after carrageenan, mean ± SD, n = 6): 2.27 ± 0.11 mm
- Percentage of inhibition of paw thickness ([3]; 2nd h): 31.22%
- Paw thickness difference ([3]; 3rd h after carrageenan, mean ± SD, n = 6): 2.86 ± 0.11 mm
- Percentage of inhibition of paw thickness ([3]; 3rd h): 32.37%
- Paw thickness difference ([3]; 4th h after carrageenan, mean ± SD, n = 6): 3.22 ± 0.19 mm
- Percentage of inhibition of paw thickness ([3]; 4th h): 36.16%
- Paw thickness difference ([3]; 5th h after carrageenan, mean ± SD, n = 6): 3.51 ± 0.07 mm
- Percentage of inhibition of paw thickness ([3]; 5th h): 33.89%
- Paw Weight Increase ([3]; right vs left paw, after 5 h, mean ± SD, n = 6): 34.08 ± 2.27 ^ab %
- Gastric mucosa histopathological finding (gastric mucosa; H&E staining): ulcer formation with desquamation of gastric mucosal epithelium; also recorded: ulcer development and desquamation of the stomach mucosal epithelium
- Increase in ulcer number (gastric mucosa; [5]): 233.33%
- Increase in ulcer severity score (gastric mucosa; [5]): 366.67%
- Ulcer Number Score (gastric mucosa; mean ± SD, n = 6): 1.67 ± 0.82 ^a
- Ulcer Severity Score (gastric mucosa; mean ± SD, n = 6, scale 0 to 5): 1.17 ± 0.61 ^a
- Reduction of TNF-α exudate content (TNF-α): 60.09%
- Hot plate latency period ([4]; 30 min post-administration): 9.95 ± 0.35 ^ab
- Increase in latency period ([4]; 60 min mark): 58.38%
- Hot plate latency period ([4]; 60 min post-administration): 11.58 ± 0.25 ^ab
- Hot plate latency period ([4]; 90 min post-administration): 12.83 ± 0.36 ^ab
- Hot plate latency period ([4]; 120 min post-administration): 13.73 ± 0.42 ^a
